Literature values in US20050020601A1, “Novel pyrazinones as CRF1 receptor antagonists” (Pfizer Inc, priority 2003, published 2005).

How the values were obtained:
[1] = tested on: rats; settings: for effect on the "anxiogenic" effects/actions of CRF: conflict test
[2] = tested on: cultured human epidermal keratinocyte cells

Compound | effect on the "anxiogenic" effects/actions of CRF [1] | behavioral activity alone ([1]; operant conflict test, compound alone) | keratinocyte cell proliferation [2]
CCOC(=O)c1ncn2c1CN(C)C(=O)c1cc(F)ccc1-2 [Ro 15-1788] | reversed the effects of CRF in a dose-dependent manner | without behavioral activity alone | –
CCN(c1nc(C)cc(N2CC=C(c3cccc(F)c3)CC2)n1)c1ccc(C(C)C)cc1SC [2-[N-(2-methylthio-4-isopropylphenyl)-N-ethylamino]-4-[4-(3-fluorophenyl)-1,2,3,6-tetrahydropyridine-1-yl]-6-methylpyrimidine] | – | – | keratinocyte cell proliferation promoting effect
CNC(=O)c1cc2c(cn1)[nH]c1ccccc12 [FG 7142] | enhanced the actions of CRF | – | –
